Test system: tyrosinase
Assay: tyrosinase activity under mildly acidic conditions by consumption of dissolved oxygen
Format: biochemical, mushroom
Conditions: chlorogenic acid 6 mM, 0.16% chitosan, pH about 5.8 to 6.0, tyrosinase 60 U/mL
Procedure: The reactivity of tyrosinase under mildly acidic conditions was studied to verify that the enzyme remains active in acidic solution. The progress of the reaction was measured by monitoring the consumption of dissolved oxygen, using the method described in Mayer et al., “Assay of catechol oxidase: A critical comparison of methods,” Phytochem., 5:783-789 (1966). The dissolved oxygen probe used in these measurements was obtained from Microelectrodes, Londonderry, N.H. Chlorogenic acid (6 mM) was added to a 0.16% chitosan solution, and the pH was adjusted to about 5.8 to 6.0. Tyrosinase (60 U/mL) was added, the reaction vessel sealed, and the dissolved oxygen content measured as a function of time. Two control solutions were prepared and monitored in the same manner, one containing only tyrosinase and chitosan (no phenolic compound), and one containing only chlorogenic acid and chitosan (no enzyme). The results of these measurements are shown in FIG. 1, with the two control solutions labeled “tyrosinase only” and “chlorogenic acid only,” respectively. […] In the solution containing both tyrosinase and chlorogenic acid, however, the oxygen level dropped rapidly in the first few minutes, reaching essentially zero after about 10 to 12 minutes.

time for dissolved oxygen level to reach essentially zero: 10 to 12 min
SMILES: O=C(/C=C/c1ccc(O)c(O)c1)O[C@@H]1C[C@](O)(C(=O)O)C[C@@H](O)[C@H]1O [chlorogenic acid]
